Results reported in patent US20230085307A1, “PYRIDAZINONE COMPOUND AND HERBICIDE” (NISSAN CHEMICAL CORPORATION, priority 2019, published 2023).

Experiments:
barnyard grass [1] = assay: Test Example 3: herbicidal effect by foliage application, Wagner pot (Table 18, symbol H); assay type: in vivo, barnyard grass (Echinochloa crus-galli); conditions: amount of applied herbicide 320 g/ha
How it was run: (§1)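 Plants were sown in alluvial soil held under 0.1–0.5 cm standing water and grown 14 days in a greenhouse at 25–30 °C. An emulsifiable formulation, water-diluted to the set dose, was then sprayed onto the foliage, and effects were scored three weeks later using previously defined criteria.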

Chinese sprangletop = assay: Test Example 3: herbicidal effect by foliage application, Wagner pot (Table 18, symbol D); assay type: in vivo, chinese sprangletop (Leptochloa chinensis); conditions: amount of applied herbicide 320 g/ha
How it was run: as §1

rice flat sedge = assay: Test Example 3: herbicidal effect by foliage application, Wagner pot (Table 18, symbol E); assay type: in vivo, rice flat sedge (Cyperus iria); conditions: amount of applied herbicide 320 g/ha
How it was run: as §1

southern crabgrass [2] = assay: Test Example 4: herbicidal effect by soil treatment (Table 19, symbol F); assay type: in vivo, southern crabgrass (Digitaria ciliaris); conditions: amount of applied herbicide 320 g/ha
How it was run: (§2)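 In this soil treatment, the formulated compound reached the seeds only through the soil: seeds were buried about 1.5 cm deep in sterilized diluvial soil, then the diluted emulsion was sprayed over the surface. After three weeks at 25° C. to 30° C. in a greenhouse, effects were graded on criteria from an earlier test.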

green foxtail [3] = assay: Test Example 4: herbicidal effect by soil treatment (Table 19, symbol G); assay type: in vivo, green foxtail (Setaria viridis); conditions: amount of applied herbicide 320 g/ha
How it was run: as §2

barnyard grass [4] = assay: Test Example 4: herbicidal effect by soil treatment (Table 19, symbol H); assay type: in vivo, barnyard grass (Echinochloa crus-galli); conditions: amount of applied herbicide 320 g/ha
How it was run: as §2

wild oat [5] = assay: Test Example 4: herbicidal effect by soil treatment (Table 19, symbol I); assay type: in vivo, wild oat (Avena fatua); conditions: amount of applied herbicide 320 g/ha
How it was run: as §2

blackgrass [6] = assay: Test Example 4: herbicidal effect by soil treatment (Table 19, symbol J); assay type: in vivo, blackgrass (Alopecurus myosuroides); conditions: amount of applied herbicide 320 g/ha
How it was run: as §2

Italian ryegrass [7] = assay: Test Example 4: herbicidal effect by soil treatment (Table 19, symbol K); assay type: in vivo, Italian ryegrass (Lolium multiflorum); conditions: amount of applied herbicide 320 g/ha
How it was run: as §2

windgrass [8] = assay: Test Example 4: herbicidal effect by soil treatment (Table 19, symbol L); assay type: in vivo, windgrass (Apera spica-venti); conditions: amount of applied herbicide 320 g/ha
How it was run: as §2

velvetleaf [9] = assay: Test Example 4: herbicidal effect by soil treatment (Table 19, symbol M); assay type: in vivo, velvetleaf (Abutilon theophrasti); conditions: amount of applied herbicide 320 g/ha
How it was run: as §2

redroot pigweed [10] = assay: Test Example 4: herbicidal effect by soil treatment (Table 19, symbol N); assay type: in vivo, redroot pigweed (Amaranthus retroflexus); conditions: amount of applied herbicide 320 g/ha
How it was run: as §2

lambsquarters [11] = assay: Test Example 4: herbicidal effect by soil treatment (Table 19, symbol O); assay type: in vivo, lambsquarters (Chenopodium album); conditions: amount of applied herbicide 320 g/ha
How it was run: as §2

chickweed [12] = assay: Test Example 4: herbicidal effect by soil treatment (Table 19, symbol P); assay type: in vivo, common chickweed (Stellaria media); conditions: amount of applied herbicide 320 g/ha
How it was run: as §2

persian speedwell [13] = assay: Test Example 4: herbicidal effect by soil treatment (Table 19, symbol R); assay type: in vivo, Persian speedwell (Veronica persica); conditions: amount of applied herbicide 320 g/ha
How it was run: as §2

southern crabgrass [14] = assay: Test Example 5: herbicidal effect by foliage application, plastic box (Table 20, symbol F); assay type: in vivo, southern crabgrass (Digitaria ciliaris); conditions: foliage application, 320 g/ha, evaluated three weeks after application
How it was run: (§3)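 Plants were sown into sterilized diluvial soil under about 1.5 cm cover and kept in a greenhouse at 25° C. to 30° C. Fourteen days on, foliage received an even spray of the diluted emulsion. Herbicidal or crop effect was judged three weeks afterwards.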

green foxtail [15] = assay: Test Example 5: herbicidal effect by foliage application, plastic box (Table 20, symbol G); assay type: in vivo, green foxtail (Setaria viridis); conditions: foliage application, 320 g/ha, evaluated three weeks after application
How it was run: as §3

barnyard grass [16] = assay: Test Example 5: herbicidal effect by foliage application, plastic box (Table 20, symbol H); assay type: in vivo, barnyard grass (Echinochloa crus-galli); conditions: foliage application, 320 g/ha, evaluated three weeks after application
How it was run: as §3

wild oat [17] = assay: Test Example 5: herbicidal effect by foliage application, plastic box (Table 20, symbol I); assay type: in vivo, wild oat (Avena fatua); conditions: foliage application, 320 g/ha, evaluated three weeks after application
How it was run: as §3

blackgrass [18] = assay: Test Example 5: herbicidal effect by foliage application, plastic box (Table 20, symbol J); assay type: in vivo, blackgrass (Alopecurus myosuroides); conditions: foliage application, 320 g/ha, evaluated three weeks after application
How it was run: as §3

Italian ryegrass [19] = assay: Test Example 5: herbicidal effect by foliage application, plastic box (Table 20, symbol K); assay type: in vivo, Italian ryegrass (Lolium multiflorum); conditions: foliage application, 320 g/ha, evaluated three weeks after application
How it was run: as §3

windgrass [20] = assay: Test Example 5: herbicidal effect by foliage application, plastic box (Table 20, symbol L); assay type: in vivo, windgrass (Apera spica-venti); conditions: foliage application, 320 g/ha, evaluated three weeks after application
How it was run: as §3

velvetleaf [21] = assay: Test Example 5: herbicidal effect by foliage application, plastic box (Table 20, symbol M); assay type: in vivo, velvetleaf (Abutilon theophrasti); conditions: foliage application, 320 g/ha, evaluated three weeks after application
How it was run: as §3

redroot pigweed [22] = assay: Test Example 5: herbicidal effect by foliage application, plastic box (Table 20, symbol N); assay type: in vivo, redroot pigweed (Amaranthus retroflexus); conditions: foliage application, 320 g/ha, evaluated three weeks after application
How it was run: as §3

lambsquarters [23] = assay: Test Example 5: herbicidal effect by foliage application, plastic box (Table 20, symbol O); assay type: in vivo, lambsquarters (Chenopodium album); conditions: foliage application, 320 g/ha, evaluated three weeks after application
How it was run: as §3

chickweed [24] = assay: Test Example 5: herbicidal effect by foliage application, plastic box (Table 20, symbol P); assay type: in vivo, common chickweed (Stellaria media); conditions: foliage application, 320 g/ha, evaluated three weeks after application
How it was run: as §3

persian speedwell [25] = assay: Test Example 5: herbicidal effect by foliage application, plastic box (Table 20, symbol R); assay type: in vivo, Persian speedwell (Veronica persica); conditions: foliage application, 320 g/ha, evaluated three weeks after application
How it was run: as §3

SMILES	herbicidal effect on H: barnyard grass (barnyard grass [1])	herbicidal effect on D: Chinese sprangletop (Chinese sprangletop)	herbicidal effect on E: rice flat sedge (rice flat sedge)	F: southern crabgrass, herbicidal effect rating (southern crabgrass [2])	G: green foxtail, herbicidal effect rating (green foxtail [3])	H: barnyard grass, herbicidal effect rating (barnyard grass [4])	I: wild oat, herbicidal effect rating (wild oat [5])	J: blackgrass, herbicidal effect rating (blackgrass [6])	K: Italian ryegrass, herbicidal effect rating (Italian ryegrass [7])	L: windgrass, herbicidal effect rating (windgrass [8])	M: velvetleaf, herbicidal effect rating (velvetleaf [9])	N: redroot pigweed, herbicidal effect rating (redroot pigweed [10])	O: lambsquarters, herbicidal effect rating (lambsquarters [11])	P: chickweed, herbicidal effect rating (chickweed [12])	R: persian speedwell, herbicidal effect rating (persian speedwell [13])	herbicidal effect on F: southern crabgrass (southern crabgrass [14])	herbicidal effect on G: green foxtail (green foxtail [15])	herbicidal effect on H: barnyard grass (barnyard grass [16])	herbicidal effect on I: wild oat (wild oat [17])	herbicidal effect on J: blackgrass (blackgrass [18])	also measured
Cc1ccc2sc(-c3ccc(F)cc3)c(-c3c(O)c(C)nn(C)c3=O)c2c1 [2-134]	3 (Herbicidal rate of 40% or more and less than 70%)	0 (Herbicidal rate of 5% or less (almost no effect))	5 (Herbicidal rate of 90% or more (almost completely withered))	2 (Herbicidal rate of 20% or more and less than 40%)	0 (Herbicidal rate of 5% or less (almost no effect))	0 (Herbicidal rate of 5% or less (almost no effect))	0 (Herbicidal rate of 5% or less (almost no effect))	0 (Herbicidal rate of 5% or less (almost no effect))	0 (Herbicidal rate of 5% or less (almost no effect))	0 (Herbicidal rate of 5% or less (almost no effect))	0 (Herbicidal rate of 5% or less (almost no effect))	5 (Herbicidal rate of 90% or more (almost completely withered))	5 (Herbicidal rate of 90% or more (almost completely withered))	4 (Herbicidal rate of 70% or more and less than 90%)	4 (Herbicidal rate of 70% or more and less than 90%)	0 (Herbicidal rate of 5% or less (almost no effect))	0 (Herbicidal rate of 5% or less (almost no effect))	0 (Herbicidal rate of 5% or less (almost no effect))	0 (Herbicidal rate of 5% or less (almost no effect))	0 (Herbicidal rate of 5% or less (almost no effect))	herbicidal effect on K: Italian ryegrass (Italian ryegrass [19]): 3 (Herbicidal rate of 40% or more and less than 70%); herbicidal effect on L: windgrass (windgrass [20]): 0 (Herbicidal rate of 5% or less (almost no effect)); herbicidal effect on M: velvetleaf (velvetleaf [21]): 5 (Herbicidal rate of 90% or more (almost completely withered)); herbicidal effect on N: redroot pigweed (redroot pigweed [22]): 5 (Herbicidal rate of 90% or more (almost completely withered)); herbicidal effect on O: lambsquarters (lambsquarters [23]): 4 (Herbicidal rate of 70% or more and less than 90%); herbicidal effect on P: chickweed (chickweed [24]): 5 (Herbicidal rate of 90% or more (almost completely withered)); herbicidal effect on R: persian speedwell (persian speedwell [25]): 5 (Herbicidal rate of 90% or more (almost completely withered))
Cc1ccc(-c2sc3ccc(C)cc3c2-c2c(O)c(C)nn(C)c2=O)cc1 [2-136]	2 (Herbicidal rate of 20% or more and less than 40%)	0 (Herbicidal rate of 5% or less (almost no effect))	5 (Herbicidal rate of 90% or more (almost completely withered))	3 (Herbicidal rate of 40% or more and less than 70%)	0 (Herbicidal rate of 5% or less (almost no effect))	0 (Herbicidal rate of 5% or less (almost no effect))	0 (Herbicidal rate of 5% or less (almost no effect))	0 (Herbicidal rate of 5% or less (almost no effect))	3 (Herbicidal rate of 40% or more and less than 70%)	0 (Herbicidal rate of 5% or less (almost no effect))	0 (Herbicidal rate of 5% or less (almost no effect))	5 (Herbicidal rate of 90% or more (almost completely withered))	5 (Herbicidal rate of 90% or more (almost completely withered))	4 (Herbicidal rate of 70% or more and less than 90%)	5 (Herbicidal rate of 90% or more (almost completely withered))	0 (Herbicidal rate of 5% or less (almost no effect))	0 (Herbicidal rate of 5% or less (almost no effect))	0 (Herbicidal rate of 5% or less (almost no effect))	0 (Herbicidal rate of 5% or less (almost no effect))	0 (Herbicidal rate of 5% or less (almost no effect))	herbicidal effect on K: Italian ryegrass (Italian ryegrass [19]): 5 (Herbicidal rate of 90% or more (almost completely withered)); herbicidal effect on L: windgrass (windgrass [20]): 0 (Herbicidal rate of 5% or less (almost no effect)); herbicidal effect on M: velvetleaf (velvetleaf [21]): 5 (Herbicidal rate of 90% or more (almost completely withered)); herbicidal effect on N: redroot pigweed (redroot pigweed [22]): 5 (Herbicidal rate of 90% or more (almost completely withered)); herbicidal effect on O: lambsquarters (lambsquarters [23]): 4 (Herbicidal rate of 70% or more and less than 90%); herbicidal effect on P: chickweed (chickweed [24]): 5 (Herbicidal rate of 90% or more (almost completely withered)); herbicidal effect on R: persian speedwell (persian speedwell [25]): 5 (Herbicidal rate of 90% or more (almost completely withered))
